Laboratory results as given in patent US5399487A, “6-peptidylamino-1-naphthalenesulfonamides useful as fluorogenic proteolytic enzyme substrates” (Haematologic Technologies, Inc., priority 1993, dated 1995).

Experiments:
Format in all cases: biochemical
[1] = biological target: T1, factor VIIa (Homo sapiens, UniProt P08709); assay: Fluorogenic enzyme assay, relative hydrolysis rates (Table 8); settings: 10 nM enzyme, substrate 1 μM
T1 construct: directly measure the enzymatic activity of factor VIIa in the presence and absence of tissue factor and phospholipid
T1 sequence (P08709 213-466 limits assumed): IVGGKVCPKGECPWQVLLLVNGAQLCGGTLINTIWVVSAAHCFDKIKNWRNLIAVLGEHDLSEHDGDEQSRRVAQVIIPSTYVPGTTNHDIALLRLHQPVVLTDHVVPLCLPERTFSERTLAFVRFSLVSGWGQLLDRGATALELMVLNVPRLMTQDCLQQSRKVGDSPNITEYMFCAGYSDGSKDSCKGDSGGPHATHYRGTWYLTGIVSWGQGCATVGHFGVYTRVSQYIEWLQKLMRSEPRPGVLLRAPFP
T1 sequence (P08709 61-212 limits assumed): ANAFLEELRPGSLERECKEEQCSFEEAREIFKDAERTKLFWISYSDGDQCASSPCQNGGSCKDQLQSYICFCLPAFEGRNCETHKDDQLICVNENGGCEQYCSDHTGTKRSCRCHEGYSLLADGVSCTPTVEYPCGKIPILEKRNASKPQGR
Method: Enzyme assays (except factor VIIa assays, see below) were conducted in 20 mM Tris, 150 mM NaCl, pH 7.4 (TBS) at room temperature (22° C.). The final volume for all reaction mixtures was 2.0 ml. Fluorogenic substrates were dissolved in DMSO to a stock concentration of 10 mM. The 10 mM stock solution was diluted in TBS to the final working concentration prior to all assays. Enzyme was added to mixtures containing buffer components and substrate and the initial rate of substrate hydrolysis was measured as the change in fluorescent intensity over time, corresponding to the generation of the particular 6-amino-1-naphthalenesulfonamide fluorophore from the provided substrate. Quantitation of substrate hydrolysis was accomplished by establishing a standard curve from the appropriate fluorescent moiety. Fluorescence was monitored (continuously or discontinuously) using a Perkin Elmer fluorescence spectrophotometer, model MPF-44A, equipped with a standard chart recorder. The fluorophore was detected using monochrometers set at an excitation wavelength of 352 nm and an emission wavelength of 470 nm. Light scattering artifacts were minimized using a 399 nm cut off filter in the emission light beam.
(§1) Factor VII assays were conducted in 20 mM HEPES, 150 mM NaCl, 5 mM CaCl2, pH 7.4 (HBS) at 37° C. The final volume for all reactions was 1.6 ml. 6-(Mes-D-Leu-Gly-Arg)amino-1-(N,N-diethyl)naphthalenesulfonamide was dissolved in DMSO to a stock concentration of 10 mM. This 10 mM stock solution of was diluted in HBS to final working concentration prior to all assays. For reactions involving tissue factor (TF) and phospholipid vesicles, recombinant human tissue factor was solubilized in either 0.04% n-dodecyl octaethylene glycol (C12 E8) or 0.8% octyl glucoside. The TF/n-dodecyl octaethylene glycol was then relipidated into PCPS or PC vesicles by a 30 minute incubation step as described by Lawson & Mann, J. Biol. Chem. 266: 11317-11327 (1991). TF/octyl glucoside was relipidated into PC or PCPS vesicles by a thirty minute incubation step followed by exhaustive dialysis. The final concentration of tissue factor used in the studies described here ranged from 2 to 50 nM depending on the nature of the experiment.
(§2) Fifteen minutes prior to the start of all reactions factor VIIa was added to the reaction system. This incubation period was followed by the addition of substrate (1 μM to 400 μM) to the mixture to start the reaction. In experiments designed to determine kinetic constants of substrate hydrolysis, 50 nM rVIIa was used when no tissue factor was present in the reaction system, while 0.5 nM rVIIa was used when tissue factor was present in the reaction system. The rate of substrate hydrolysis was measured by change in fluorescence over time, which corresponded with the generation of the 6-amino-1-(N,N-diethyl)naphthalenesulfonamide from the provided substrate. The kinetic constants of 6-(Mes-D-Leu-Gly-Arg)amino-1-(N,N-diethyl)naphthalenesulfonamide hydrolysis as a function of factor VIIa/tissue factor complex assembly are shown in Table 10.

[2] = biological target: T2, VIIa/TF/PC/CA^2+ (Homo sapiens, UniProt P08709); assay: Fluorogenic factor VIIa assay (Example 6); settings: HBS, 37° C., 0.5 nM rVIIa
T2 construct: directly measure the enzymatic activity of factor VIIa in the presence and absence of tissue factor and phospholipid
Method: as §1, §2

[3] = biological target: T3, VIIa/PCPS/Ca^2+ (Homo sapiens, UniProt P08709); assay: Fluorogenic factor VIIa assay (Example 6); settings: HBS, 37° C., 50 nM rVIIa
T3 construct: directly measure the enzymatic activity of factor VIIa in the presence and absence of tissue factor and phospholipid
T3 sequence (P08709 213-466 limits assumed): T1 sequence (P08709 213-466 limits assumed)
T3 sequence (P08709 61-212 limits assumed): T1 sequence (P08709 61-212 limits assumed)
Method: as §1, §2

[4] = biological target: T4, VIIa/TF/PCPS/Ca^2+ (Homo sapiens, UniProt P08709); assay: Fluorogenic factor VIIa assay (Example 6); settings: HBS, 37° C., 0.5 nM rVIIa
T4 construct: directly measure the enzymatic activity of factor VIIa in the presence and absence of tissue factor and phospholipid
Method: as §1, §2

[5] = biological target: T5, VIIa/Ca^2+ (Homo sapiens, UniProt P08709); assay: Fluorogenic factor VIIa assay (Example 6); settings: HBS, 37° C., 50 nM rVIIa
T5 construct: directly measure the enzymatic activity of factor VIIa in the presence and absence of tissue factor and phospholipid
T5 sequence (P08709 213-466 limits assumed): T1 sequence (P08709 213-466 limits assumed)
T5 sequence (P08709 61-212 limits assumed): T1 sequence (P08709 61-212 limits assumed)
Method: as §1, §2

T2 sequence (P13726 33-295 partner, one chain of several): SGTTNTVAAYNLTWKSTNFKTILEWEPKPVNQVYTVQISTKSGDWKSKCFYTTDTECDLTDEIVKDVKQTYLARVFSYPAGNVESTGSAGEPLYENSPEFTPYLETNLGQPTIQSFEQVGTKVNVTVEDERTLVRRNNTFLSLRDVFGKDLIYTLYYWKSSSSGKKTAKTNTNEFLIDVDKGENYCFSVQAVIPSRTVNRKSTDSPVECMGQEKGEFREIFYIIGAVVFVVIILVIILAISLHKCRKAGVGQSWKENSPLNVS
T4 sequence (P13726 33-295 partner, one chain of several): as above

TIME TO 10% HYDROLYSIS (HOURS), VIIa [1]: 4 h
kcat /Km [2]: 4206 M^-1 S^-1
kcat sec^-1 ± S.E. [2]: 0.875 ± 0.032 s⁻¹
Km ([2]; read-out: Km μM ± S.E.): 208 ± 12 µM
kcat /Km [3]: 32.6 M^-1 S^-1
kcat sec^-1 ± S.E. [3]: 0.019 ± 0.003 s⁻¹
Km ([3]; read-out: Km μM ± S.E.): 580 ± 101 µM
kcat /Km [4]: 4166 M^-1 S^-1
kcat sec^-1 ± S.E. [4]: 0.675 ± 0.046 s⁻¹
Km ([4]; read-out: Km μM ± S.E.): 162 ± 16 µM
kcat /Km [5]: 41.4 M^-1 S^-1
kcat sec^-1 ± S.E. [5]: 0.010 ± 0.002 s⁻¹
Km ([5]; read-out: Km μM ± S.E.): 249 ± 88.5 µM
SMILES: CCN(CC)S(=O)(=O)c1cccc2cc(NC(=O)[C@H](CCCNC(=N)N)NC(=O)CNC(=O)[C@@H](CC(C)C)NS(C)(=O)=O)ccc12 [MesD-LPR-ANSN(C2 H5)2, 6-(Mes-D-Leu-Gly-Arg)amino-1-(N,N-diethyl)napththalenesulfonamide]
